Measurements: patent US20230183237A1, “COMPETITIVE AND NONCOMPETITIVE INHIBITORS OF THE MUSCARINIC ACETYLCHOLINE RECEPTOR M5” (Vanderbilt University, priority 2020, published 2023)

Target: T1, hM5 (Homo sapiens, UniProt P08912)
T1 construct: expressed in transfected cells
T1 sequence (P08912 1-532): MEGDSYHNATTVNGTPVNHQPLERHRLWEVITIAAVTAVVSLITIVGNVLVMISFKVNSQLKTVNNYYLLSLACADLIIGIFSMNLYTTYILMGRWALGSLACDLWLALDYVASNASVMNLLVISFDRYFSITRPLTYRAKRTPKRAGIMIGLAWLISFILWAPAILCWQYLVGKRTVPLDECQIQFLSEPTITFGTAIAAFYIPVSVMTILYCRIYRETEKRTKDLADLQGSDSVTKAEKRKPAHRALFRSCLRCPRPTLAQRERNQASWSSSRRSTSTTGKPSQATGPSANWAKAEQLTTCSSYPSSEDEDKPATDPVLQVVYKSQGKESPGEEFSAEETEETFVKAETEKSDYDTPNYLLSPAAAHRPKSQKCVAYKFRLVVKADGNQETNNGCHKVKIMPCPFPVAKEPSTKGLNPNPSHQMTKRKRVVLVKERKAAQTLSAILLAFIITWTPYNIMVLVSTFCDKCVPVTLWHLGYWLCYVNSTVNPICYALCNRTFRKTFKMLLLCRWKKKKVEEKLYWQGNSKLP
Test: Calcium mobilization concentration-response (IC50 vs EC80 acetylcholine), CHO hM5
Format: cell-based
Conditions: CELL LINE hM5; calcium mobilization, EC80 acetylcholine addition; read-out: IC50
How it was run: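 IC50 values derive from percent maximal acetylcholine response after an EC80 ACh addition, measured as kinetic calcium fluorescence (static ratio, max−min). Test compounds were added 140 s before agonist. Cells: stable hM5-CHO in HEPES-buffered HBSS with 2.5 mM probenecid, pH 7.4; ≥3 independent triplicate determinations.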

| IC50 | SMILES |
| --- | --- |
| 1100 nM | Cc1cc2ncnn2cc1C1CCN(S(=O)(=O)c2ncn(C)c2Cl)CC1 [Compound 321, 6-(1-((5-chloro-1-methyl-1H-imidazol-4-yl)sulfonyl)piperidin-4-yl)-7-methyl-[1,2,4]triazolo[1,5-a]pyridine] |
| 64 nM | Cc1cc2nccnc2cc1C1=CCN(S(=O)(=O)c2cnn(C)c2C)CC1 [Compound 354, 6-(1((1,5-dimethyl-1H-pyrazol-4-yl)sulfonyl)-1,2,3,6-tetrahydropyridin-4-yl)-7-methylquinoxaline] |
| > 10000 nM | Cc1c(S(=O)(=O)N2CCC(c3ccc4ncnn4c3C)CC2)cnn1C [Compound 198, 6-(1-((1,5-dimethyl-1H-pyrazol-4-yl)sulfonyl)piperidin-4-yl)-5-methyl-[1,2,4]triazolo[1,5-a]pyridine] |
| 253 nM | Cc1c(S(=O)(=O)N2CC=C(c3cc4ncnn4cc3Cl)CC2)cnn1C [Compound 142, 6-chloro-7-(1-((1,5-dimethyl-1H-pyrazol-4-yl)sulfonyl)-1,2,3,6-tetrahydropyridin-4-yl)-[1,2,4]triazolo[1,5-a]pyridine] |
| > 10000 nM | Cc1cc2nncn2cc1C1CCN(S(=O)(=O)c2ccc3c(c2)CCO3)CC1 [Compound 50, 6-(1-((2,3-dihydrobenzofuran-5-yl)sulfonyl)piperidin-4-yl)-7-methyl-[1,2,4]triazolo[4,3-a]pyridine] |
| 343 nM | Cc1cc2ncnn2cc1C1CCN(S(=O)(=O)c2ccc3c(c2)N(C)CCO3)CC1 [Compound 121, 4-methyl-6-((4-(7-methyl-[1,2,4]triazolo[1,5-a]pyridin-6-yl)piperidin-1-yl)sulfonyl)-3,4-dihydro-2H-benzo[b][1,4]oxazine] |
| 1300 nM | Cc1nc2cc(C)c(C3CCN(S(=O)(=O)c4cc5c(cc4C)OCC5C)CC3)cn2n1 (stereo not shown) [Compound 87] |
| > 10000 nM | O=S(=O)(c1ccc2ncccc2c1)N1CCC(c2cc3cc[nH]c3cn2)CC1 [Compound 26, 6-((4-(1H-pyrrolo[2,3-c]pyridin-5-yl)piperidin-1-yl)sulfonyl)quinoline] |
| > 10000 nM | Cc1sc(C(N)=O)nc1C1CCN(S(=O)(=O)c2ccc3c(c2)CCO3)CC1 [Compound 211, 4-(1-((2,3-dihydrobenzofuran-5-yl)sulfonyl)piperidin-4-yl)-5-methylthiazole-2-carboxamide] |
| 276 nM | Cc1cn2ncnc2cc1C1CCN(S(=O)(=O)c2cnn(C)c2C)CC1 [Compound 222, 7-(1-((1,5-Dimethyl-1H-pyrazol-4-yl)sulfonyl)piperidin-4-yl)-6-methyl-[1,2,4]triazolo[1,5-a]pyridine] |
| 327 nM | O=S(=O)(c1c(Cl)nc2sccn12)N1CCC(c2cn3ncnc3cc2F)CC1 [Compound 328, 6-chloro-5-((4-(7-fluoro-[1,2,4]triazolo[1,5-a]pyridin-6-yl)piperidin-1-yl)sulfonyl)imidazo[2,1-b]thiazole] |
| > 10000 nM | Cc1c(S(=O)(=O)N2CCC(c3ccncc3)CC2)cnn1C [Compound 365, 4-(1-((1,5-dimethyl-1H-pyrazol-4-yl)sulfonyl)piperidin-4-yl)pyridine] |
| 9.1 nM | Cc1cc2ncnn2cc1C1CCN(S(=O)(=O)c2cnn(C)c2C(F)F)CC1 [Compound 156, 6-(1-((5-(difluoromethyl)-1-methyl-1H-pyrazol-4-yl)sulfonyl)piperidin-4-yl)-7-methyl-[1,2,4]triazolo[1,5-a]pyridine] |
| 62 nM | Cc1cc2ncnn2cc1C1CCN(S(=O)(=O)c2cnn3c2NCCC3)CC1 [Compound 261, 7-methyl-6-(1-((4,5,6,7-tetrahydropyrazolo[1,5-a]pyrimidin-3-yl)sulfonyl)piperidin-4-yl)-[1,2,4]triazolo[1,5-a]pyridine] |
| 117 nM | Cc1cc2ncnn2cc1C1CCN(S(=O)(=O)c2cccc3c2OCCO3)CC1 [Compound 152, 6-(1-((2,3-dihydrobenzo[b]dioxin-5-yl)sulfonyl)piperidin-4-yl)-7-methyl-[1,2,4]triazolo[1,5-a]pyridine] |
| > 10000 nM | O=S(=O)(c1cnn2c1CCCC2)N1CCC(c2ccncc2)CC1 [Compound 368, 3-((4-(pyridin-4-yl)piperidin-1-yl)sulfonyl)-4,5,6,7-tetrahydropyrazolo[1,5-a]pyridine] |
| > 10000 nM | Cc1cc(C#N)cnc1C1CCN(S(=O)(=O)c2ccc3c(c2)CCO3)CC1 [Compound 218, 6-(1-((2,3-dihydrobenzofuran-5-yl)sulfonyl)piperidin-4-yl)-5-methylnicotinonitrile] |
| 206 nM | [2H]C1([2H])Oc2cc(C)c(C3CCN(S(=O)(=O)c4cnn(C)c4Cl)CC3)cc2OC1([2H])[2H] [Compound 390, 1-((5-chloro-1-methyl-1H-pyrdzol-4-yl)sulfonyl)-4-(7-methyl-2,3-dihydrobenzo[b][1,4]dioxin-6-yl-2,2,3,3-d4)piperidine] |
| 212 nM | O=S(=O)(c1cnn2c1CCCC2)N1CC=C(c2cc3ncnn3cc2Cl)CC1 [Compound 241, 6-chloro-7-(1-((4,5,6,7-tetrahydropyrazolo[1,5-a]pyridin-3-yl)sulfonyl)-1,2,3,6-tetrahydropyridin-4-yl)-[1,2,4]triazolo[1,5-a]pyridine] |

Same assay, conditions: CELL LINE hM5; vs EC80 acetylcholine; read-out: IC50

| IC50 | SMILES |
| --- | --- |
| 15 nM | O=S(=O)(c1cnn2ccccc12)N1CCC(c2cn3ncnc3cc2Cl)CC1 [Compound 544, 7-chloro-6-(1-(pyrazolo[1,5-a]pyridin-3-ylsulfonyl)piperidin-4-yl)-[1,2,4]triazolo[1,5-a]pyridine] |
| 147 nM | COc1c(S(=O)(=O)N2CCC(F)(c3cn4ncnc4cc3C)CC2)cnn1C [Compound 586, 6-(4-fluoro-1-((5-methoxy-1-methyl-1H-pyrazol-4-yl)sulfonyl)piperidin-4-yl)-7-methyl-[1,2,4]triazolo[1,5-a]pyridine] |
| 159 nM | CC(C)Oc1c(S(=O)(=O)N2CCC(c3cn4ncnc4cc3Cl)CC2)cnn1C [Compound 604, 7-chloro-6-(1-((5-isopropoxy-1-methyl-1H-pyrazol-4-yl)sulfonyl)piperidin-4-yl)-[1,2,4]triazolo[1,5-a]pyridine] |
| > 10000 nM | Cc1ncc(S(=O)(=O)N2CCC(c3ccncc3C)CC2)s1 [Compound 430, 2-methyl-5-((4-(3-methylpyridin-4-yl)piperidin-1-yl)sulfonyl)thiazole] |
| 295 nM | Cc1cc(S(=O)(=O)N2CCC(c3cn4ncnc4cc3F)CC2)sn1 [Compound 500, 5-((4-(7-fluoro-[1,2,4]triazolo[1,5-a]pyridin-6-yl)piperidin-1-yl)sulfonyl)-3-methylisothiazole] |
| 34 nM | O=S(=O)(c1cnc2sccn12)N1CCC(c2cn3ncnc3cc2C(F)F)CC1 [Compound 515, 5-((4-(7-(difluoromethyl)-[1,2,4]triazolo[1,5-a]pyridin-6-yl)piperidin-1-yl)sulfonyl)imidazo[2,1-b]thiazole] |
| > 10000 nM | Cc1cc2ccnn2cc1C1CCN(S(=O)(=O)c2cnn(C)c2CC#N)CC1 [Compound 454, 2-(1-methyl-4-((4-(5-methylpyrazolo[1,5-a]pyridin-6-yl)piperidin-1-yl)sulfonyl)-1H-pyrazol-5-yl)acetonitrile] |
| 268 nM | CO[C@@H]1CN(S(=O)(=O)c2cnn(C)c2Cl)CC[C@H]1c1cn2ncnc2cc1C (single isomer, unassigned) [Compound 459] |
| > 10000 nM | Cn1ncc(S(=O)(=O)N2CCC(c3cn4ncnc4cc3F)CC2)c1CN [Compound 530, (4-((4-(7-fluoro-[1,2,4]triazolo[1,5-a]pyridin-6-yl)piperidin-1-yl)sulfonyl)-1-methyl-1H-pyrazol-5-yl)methanamine] |
| 6 nM | Cc1cc(S(=O)(=O)N2CCC(c3cn4ncnc4cc3C)CC2)sn1 [Compound 491, 3-methyl-5-((4-(7-methyl-[1,2,4]triazolo[1,5-a]pyridin-6-yl)piperidin-1-yl)sulfonyl)isothiazole] |
| 9510 nM | Cc1cc2ncnn2nc1C1CCN(S(=O)(=O)c2cnc(Cl)s2)CC1 [Compound 536, 2-chloro-5-((4-(7-methyl-[1,2,4]triazolo[1,5-b]pyridazin-6-yl)piperidin-1-yl)sulfonyl)thiazole] |
| 1950 nM | Cc1cc2ncccc2cc1C1CCN(S(=O)(=O)c2c(C)nn(C)c2C(F)(F)F)CC1 [Compound 445, 6(1-((1,3-dimethyl-5-(trifluoromethyl)-1H-pyrazol-4-yl)sulfonyl)piperidin-4-yl)-7-methylquinoline] |
| 77 nM | CCc1cc2ncnn2cc1C1CCN(S(=O)(=O)c2cnn(C)c2OC)CC1 [Compound 584, 7-ethyl-6-(1-((5-methoxy-1-methyl-1H-pyrazol-4-yl)sulfonyl)piperidin-4-yl)-[1,2,4]triazolo[1,5-a]pyridine] |
| 946 nM | O=S(=O)(c1cnn2c1OCCC2)N1CCC(F)(c2cn3ncnc3cc2F)CC1 [Compound 506, 3-((4-fluoro-4-(7-fluoro-[1,2,4]triazolo[1,5-a]pyridin-6-yl)piperidin-1-yl)sulfonyl)-6,7-dihydro-5H-pyrazolo[5,1-b][1,3]oxazine] |
| 291 nM | Cc1cc2ncnn2cc1C1CCN(S(=O)(=O)c2cnc(Cl)s2)CC1 [Compound 523, 2-chloro-5-((4-(7-methyl-[1,2,4]triazolo[1,5-a]pyridin-6-yl)piperidin-1-yl)sulfonyl)thiazole] |
